Experimental data from patent publication EP4745137A1 (Gluetacs Therapeutics (Shanghai) Co., Ltd., priority 2023, dated 2025).

Key:
[1] = test system: MM.1S; assay: Tumor cell proliferation inhibition (CellTiter-Meiluncell Luminescent Cell Viability Assay), MM.1S; settings: Homo sapiens, MM1.S, read-out: inhibitory activity (IC50, nM) against tumor cells proliferation, MM.1S
[2] = target: T1, IKZF1 (Homo sapiens, UniProt Q13422+Q96SW2); assay: Western-blot assay of substrate protein degradation in hPBMCs, IKZF1; assay type: cell-based; settings: 24 hours of compound treatment
T1 construct: endogenous in cells; host or cells: hPBMCs (Milecell Biotechnologies)

[3] = target: T2, CK1α (Homo sapiens, UniProt P48729+Q96SW2); assay: Western-blot assay of substrate protein degradation in hPBMCs, CK1α; assay type: cell-based; settings: 24 hours of compound treatment
T2 construct: endogenous in cells; host or cells: hPBMCs (Milecell Biotechnologies)

[4] = test system: NCI-H1975; assay: Tumor cell proliferation inhibition (CellTiter-Meiluncell Luminescent Cell Viability Assay), NCI-H1975; settings: Homo sapiens, NCI-H1975, read-out: inhibitory activity (IC50, nM) against tumor cells proliferation, H1975
Method: (§1) The tumor cells used herein were cultured in a cell culture medium listed in table 2 at 37°C in an incubator with 5% CO2. Prior to experimentation, all cell lines used were correctly identified by STR profiling, and tested negative for mycoplasma contamination using a mycoplasma detection kit through routine screenings.
On the following day, the test compounds of the present disclosure were subjected to serial dilution. […] Subsequently, 0.5 µL of the test compound dilution was transferred into the 96-well plate containing the cells, with each well containing 100 µL of cell culture medium. […] Into the 96-well plate, the diluted test compounds and corresponding detection reagents were added, resulting in final test compound concentrations of 500 nM and 10 nM, respectively. The experimental procedure is described below using the diluted 2 µM test compound as an example.
(§2) After the cells were treated with the compounds of the present disclosure for a specified period (the treatment durations were shown in Table 3), the cell viability assay reagent was added to the culture medium according to the kit's instructions to determine cell viability. […] All controls were treated using the same procedure as the compounds of the present disclosure. The growth inhibition curves for the compounds of the present disclosure were plotted using Prism GraphPad software, and the IC50 values were calculated therefrom.

[5] = test system: Jurkat; assay: Tumor cell proliferation inhibition (CellTiter-Meiluncell Luminescent Cell Viability Assay), Jurkat; settings: Homo sapiens, read-out: inhibitory activity (IC50, nM) against tumor cells proliferation, Jurkat
[6] = target: T3, WEE1 (Homo sapiens, UniProt P30291+Q96SW2); assay: Western-blot assay of substrate protein degradation in hPBMCs, WEE1; assay type: cell-based; settings: 24 hours of compound treatment
T3 construct: endogenous in cells; host or cells: hPBMCs (Milecell Biotechnologies)

[7] = target: T4, GSPT1 (Homo sapiens, UniProt P15170+Q96SW2); assay: Western-blot assay of substrate protein degradation in hPBMCs, GSPT1; assay type: cell-based; settings: 24 hours of compound treatment
T4 construct: endogenous in cells; host or cells: hPBMCs (Milecell Biotechnologies)

[8] = target: T5, human Cereblon WT GST-tagged protein (Homo sapiens, UniProt Q96SW2); assay: CRBN-binding affinity by HTRF (CEREBLON BINDING kit); settings: HTRF inhibitory activity, CEREBLON BINDING kit; read-out: HTRF IC50
T5 construct: purchased CISBIO 64BDCRBNPEH

[9] = target: T6, IKZF2 (Homo sapiens, UniProt Q96SW2+Q9UKS7); assay: Western-blot assay of substrate protein degradation in hPBMCs, IKZF2; assay type: cell-based; settings: 24 hours of compound treatment
T6 construct: endogenous in cells; host or cells: hPBMCs (Milecell Biotechnologies)

[10] = test system: SR; assay: Tumor cell proliferation inhibition (CellTiter-Meiluncell Luminescent Cell Viability Assay), SR; settings: Homo sapiens, read-out: inhibitory activity (IC50, nM) against tumor cells proliferation, SR
Method: as §1
On the following day, the test compounds of the present disclosure were subjected to serial dilution. […] Subsequently, 0.5 µL of the test compound dilution was transferred into the 96-well plate containing the cells, with each well containing 100 µL of cell culture medium. […] Into the 96-well plate, the diluted test compounds and corresponding detection reagents were added, resulting in final test compound concentrations of 500 nM and 10 nM, respectively.
as §2

[11] = target: T7, IKZF3 (Homo sapiens, UniProt Q96SW2+Q9UKT9); assay: Western-blot assay of substrate protein degradation in hPBMCs, IKZF3; assay type: cell-based; settings: 24 hours of compound treatment
T7 construct: endogenous in cells; host or cells: hPBMCs (Milecell Biotechnologies)

[12] = test system: TMD8; assay: Tumor cell proliferation inhibition (CellTiter-Meiluncell Luminescent Cell Viability Assay), TMD8; settings: Homo sapiens, TMD8, read-out: inhibitory activity (IC50, nM) against tumor cells proliferation, TMD8
[13] = test system: CCRF-CEM; assay: Tumor cell proliferation inhibition (CellTiter-Meiluncell Luminescent Cell Viability Assay), CCRF-CEM; settings: Homo sapiens, read-out: inhibitory activity (IC50, nM) against tumor cells proliferation, CCRF-CEM
[14] = test system: MV-4-11; assay: Tumor cell proliferation inhibition (CellTiter-Meiluncell Luminescent Cell Viability Assay), MV-4-11; settings: Homo sapiens, MV4-11, read-out: inhibitory activity (IC50, nM) against tumor cells proliferation, MV-4-11
[15] = test system: Human acute T lymphocytic leukemia cells (Molt-4); assay: Tumor cell proliferation inhibition (CellTiter-Meiluncell Luminescent Cell Viability Assay), Molt-4; settings: MOLT-4, read-out: inhibitory activity (IC50, nM) against tumor cells proliferation, Molt-4
[16] = compounds tested at 50 nM and 500 nM (concentration of the table not stated)
[17] = 50 nM and 500 nM tested (concentration behind the class not stated)

T7 sequence (Q9UKT9 whole entry): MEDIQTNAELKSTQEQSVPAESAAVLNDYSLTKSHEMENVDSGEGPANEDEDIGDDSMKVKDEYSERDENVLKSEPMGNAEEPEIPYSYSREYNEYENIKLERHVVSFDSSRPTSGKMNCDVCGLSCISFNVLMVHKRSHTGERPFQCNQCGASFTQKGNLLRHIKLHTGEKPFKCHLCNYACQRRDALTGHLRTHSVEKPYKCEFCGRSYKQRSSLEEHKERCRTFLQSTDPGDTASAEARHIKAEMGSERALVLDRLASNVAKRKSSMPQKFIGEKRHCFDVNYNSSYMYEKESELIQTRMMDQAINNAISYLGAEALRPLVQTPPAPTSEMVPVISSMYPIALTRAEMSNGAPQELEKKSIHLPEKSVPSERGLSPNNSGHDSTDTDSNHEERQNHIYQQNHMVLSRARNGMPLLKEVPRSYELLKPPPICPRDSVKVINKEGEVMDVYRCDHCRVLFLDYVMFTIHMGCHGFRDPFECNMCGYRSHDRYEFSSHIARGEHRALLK
T7 sequence (Q96SW2 whole entry): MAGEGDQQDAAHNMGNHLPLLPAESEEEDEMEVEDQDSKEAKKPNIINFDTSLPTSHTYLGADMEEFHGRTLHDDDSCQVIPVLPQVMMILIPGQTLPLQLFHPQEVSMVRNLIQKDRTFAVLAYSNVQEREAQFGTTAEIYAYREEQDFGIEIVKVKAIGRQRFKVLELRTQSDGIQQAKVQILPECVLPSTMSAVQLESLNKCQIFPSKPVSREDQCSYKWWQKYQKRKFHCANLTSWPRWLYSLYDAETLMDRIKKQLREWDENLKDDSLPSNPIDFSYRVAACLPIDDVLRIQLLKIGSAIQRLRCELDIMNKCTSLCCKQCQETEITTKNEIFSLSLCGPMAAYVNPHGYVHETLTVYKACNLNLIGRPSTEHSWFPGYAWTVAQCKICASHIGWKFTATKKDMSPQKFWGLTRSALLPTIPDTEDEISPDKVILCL
T7 sequence (Q16531 whole entry partner): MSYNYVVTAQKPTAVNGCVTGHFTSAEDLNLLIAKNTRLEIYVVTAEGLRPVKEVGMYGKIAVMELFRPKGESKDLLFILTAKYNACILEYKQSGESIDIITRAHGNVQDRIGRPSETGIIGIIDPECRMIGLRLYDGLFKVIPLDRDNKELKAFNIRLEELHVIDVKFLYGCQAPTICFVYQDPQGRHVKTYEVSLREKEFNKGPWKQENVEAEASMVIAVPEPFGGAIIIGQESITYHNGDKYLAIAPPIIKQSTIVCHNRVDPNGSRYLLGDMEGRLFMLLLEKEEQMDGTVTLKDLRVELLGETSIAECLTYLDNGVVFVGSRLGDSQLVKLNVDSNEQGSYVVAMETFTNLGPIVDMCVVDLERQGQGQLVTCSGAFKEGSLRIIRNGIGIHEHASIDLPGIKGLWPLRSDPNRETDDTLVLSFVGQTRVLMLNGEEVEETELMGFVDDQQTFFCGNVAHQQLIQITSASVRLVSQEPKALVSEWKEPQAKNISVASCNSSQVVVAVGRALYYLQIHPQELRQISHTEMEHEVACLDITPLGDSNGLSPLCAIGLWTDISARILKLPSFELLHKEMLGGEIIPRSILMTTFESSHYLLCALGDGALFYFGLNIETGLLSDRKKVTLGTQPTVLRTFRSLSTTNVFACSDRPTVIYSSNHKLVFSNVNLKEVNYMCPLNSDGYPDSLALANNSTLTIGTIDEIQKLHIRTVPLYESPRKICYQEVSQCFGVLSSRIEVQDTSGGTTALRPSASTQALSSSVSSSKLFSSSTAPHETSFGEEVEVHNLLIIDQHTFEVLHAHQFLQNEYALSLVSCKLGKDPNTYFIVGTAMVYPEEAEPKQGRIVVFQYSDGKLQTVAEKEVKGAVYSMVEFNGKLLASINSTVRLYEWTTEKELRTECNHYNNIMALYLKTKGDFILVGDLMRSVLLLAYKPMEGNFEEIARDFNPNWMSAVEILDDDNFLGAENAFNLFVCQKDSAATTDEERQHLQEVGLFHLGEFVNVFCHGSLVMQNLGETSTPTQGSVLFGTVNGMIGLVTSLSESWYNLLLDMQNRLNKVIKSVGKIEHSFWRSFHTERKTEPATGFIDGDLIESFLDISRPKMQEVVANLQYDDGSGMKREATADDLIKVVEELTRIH
T3 sequence (P30291 whole entry): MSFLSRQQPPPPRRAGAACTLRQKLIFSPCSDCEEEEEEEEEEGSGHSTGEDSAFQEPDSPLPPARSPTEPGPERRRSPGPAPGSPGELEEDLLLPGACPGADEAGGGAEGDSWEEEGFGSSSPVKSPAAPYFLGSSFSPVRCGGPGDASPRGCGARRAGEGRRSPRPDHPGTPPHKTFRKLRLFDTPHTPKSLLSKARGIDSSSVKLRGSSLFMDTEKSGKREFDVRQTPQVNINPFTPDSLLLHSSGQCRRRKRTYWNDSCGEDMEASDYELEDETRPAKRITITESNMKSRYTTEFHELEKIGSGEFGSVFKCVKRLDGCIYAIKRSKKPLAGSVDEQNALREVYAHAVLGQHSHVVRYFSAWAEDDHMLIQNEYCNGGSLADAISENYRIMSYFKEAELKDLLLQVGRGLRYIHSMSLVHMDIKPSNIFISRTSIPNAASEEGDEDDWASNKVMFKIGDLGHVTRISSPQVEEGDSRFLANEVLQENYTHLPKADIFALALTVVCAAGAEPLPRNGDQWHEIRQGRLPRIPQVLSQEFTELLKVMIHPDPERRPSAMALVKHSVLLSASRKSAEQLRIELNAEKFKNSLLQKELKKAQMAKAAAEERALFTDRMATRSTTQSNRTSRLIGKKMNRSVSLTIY
T3 sequence (Q96SW2 whole entry): as the sequence (Q96SW2 whole entry) above
T3 sequence (Q16531 whole entry partner): as the sequence (Q16531 whole entry partner) above
T5 sequence (Q96SW2 whole entry): as the sequence (Q96SW2 whole entry) above
T6 sequence (Q9UKS7 whole entry): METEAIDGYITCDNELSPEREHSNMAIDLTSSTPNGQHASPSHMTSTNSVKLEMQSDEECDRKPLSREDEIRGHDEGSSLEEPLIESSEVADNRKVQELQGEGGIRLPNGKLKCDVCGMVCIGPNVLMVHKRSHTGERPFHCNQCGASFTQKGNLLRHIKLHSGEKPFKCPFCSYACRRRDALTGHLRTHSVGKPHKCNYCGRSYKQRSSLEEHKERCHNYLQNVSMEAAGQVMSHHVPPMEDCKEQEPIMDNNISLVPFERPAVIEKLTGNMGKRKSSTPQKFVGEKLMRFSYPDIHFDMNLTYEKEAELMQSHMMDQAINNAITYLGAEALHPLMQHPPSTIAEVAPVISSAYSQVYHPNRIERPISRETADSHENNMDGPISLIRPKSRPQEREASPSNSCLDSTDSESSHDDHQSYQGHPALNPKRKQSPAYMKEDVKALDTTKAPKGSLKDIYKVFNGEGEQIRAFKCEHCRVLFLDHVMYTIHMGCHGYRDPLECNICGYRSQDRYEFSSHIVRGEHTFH
T6 sequence (Q96SW2 whole entry): as the sequence (Q96SW2 whole entry) above
T6 sequence (Q16531 whole entry partner): as the sequence (Q16531 whole entry partner) above
T2 sequence (P48729 whole entry): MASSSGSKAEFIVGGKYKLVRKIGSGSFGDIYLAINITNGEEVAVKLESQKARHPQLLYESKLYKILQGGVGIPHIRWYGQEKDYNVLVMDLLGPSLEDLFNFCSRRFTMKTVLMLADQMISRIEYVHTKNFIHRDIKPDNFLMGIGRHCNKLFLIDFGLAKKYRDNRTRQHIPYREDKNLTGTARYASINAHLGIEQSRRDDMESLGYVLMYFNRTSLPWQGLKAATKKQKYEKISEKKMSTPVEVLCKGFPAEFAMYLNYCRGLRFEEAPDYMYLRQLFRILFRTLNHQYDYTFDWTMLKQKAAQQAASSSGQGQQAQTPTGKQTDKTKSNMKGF
T2 sequence (Q96SW2 whole entry): as the sequence (Q96SW2 whole entry) above
T2 sequence (Q16531 whole entry partner): as the sequence (Q16531 whole entry partner) above
T1 sequence (Q13422 whole entry): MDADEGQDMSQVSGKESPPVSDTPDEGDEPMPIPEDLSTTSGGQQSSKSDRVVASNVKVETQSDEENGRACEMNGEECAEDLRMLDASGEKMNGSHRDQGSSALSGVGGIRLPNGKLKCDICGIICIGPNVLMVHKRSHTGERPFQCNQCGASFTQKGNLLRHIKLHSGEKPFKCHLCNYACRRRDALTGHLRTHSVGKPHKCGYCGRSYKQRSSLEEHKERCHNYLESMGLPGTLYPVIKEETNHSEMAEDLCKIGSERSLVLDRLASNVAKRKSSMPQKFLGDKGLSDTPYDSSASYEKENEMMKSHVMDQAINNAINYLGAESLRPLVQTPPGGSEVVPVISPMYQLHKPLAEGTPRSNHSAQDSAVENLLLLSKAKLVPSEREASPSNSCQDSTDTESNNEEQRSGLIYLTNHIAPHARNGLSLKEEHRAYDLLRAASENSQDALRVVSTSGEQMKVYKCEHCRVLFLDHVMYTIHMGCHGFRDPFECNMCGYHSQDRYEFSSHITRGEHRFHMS
T1 sequence (Q96SW2 whole entry): as the sequence (Q96SW2 whole entry) above
T1 sequence (Q16531 whole entry partner): as the sequence (Q16531 whole entry partner) above

Row | SMILES | IC50 [1] | IKZF 1 substrate protein remaining % [2, 16] | CK1a substrate protein remaining % [3, 16] | IC50 [4] | IC50 [5] | Weel substrate protein remaining % [6, 16] | GSPT1 substrate protein remaining % [7, 16] | IC50 [8] | IKZF2 substrate protein remaining % [9, 16] | IC50 [10] | IKZF3 substrate protein remaining % [11, 16] | other results
1 | CC(C)c1cc2c(C3=CCN(Cc4ccc5c(c4)CN(C4CCC(=O)NC4=O)C5=O)CC3)ncnc2s1 (stereo not shown) [GT-04935, 3-(5-((4-(6-isopropylthieno[2,3-d]pyrimidin-4-yl)-3,6-dihydropyridin-1(2H)-yl)methyl)-1-oxoisoindolin-2-yl)piperidine-2,6-dione] | < 1 nM | A (0% ≤ substrate protein remaining % ≤ 80%) | A (0% ≤ substrate protein remaining % ≤ 80%) | 1 to 5 nM | 1 to 5 nM | A (0% ≤ substrate protein remaining % ≤ 80%) | A (0% ≤ substrate protein remaining % ≤ 80%) | < 500 nM | A (0% ≤ substrate protein remaining % ≤ 80%) | 10 to 50 nM | A (0% ≤ substrate protein remaining % ≤ 80%) | –
2 | O=C1CCC(N2Cc3cc(CN4CCN(c5n[nH]c6cc(F)ccc56)CC4)ccc3C2=O)C(=O)N1 (stereo not shown) [GT-05264, 3-(5-((4-(6-fluoro-1H-indazol-3-yl)piperazin-1-yl)methyl)-1-oxoisoindolin-2-yl)piperidine-2,6-dione] | 1 to 5 nM | A (0% ≤ substrate protein remaining % ≤ 80%) | A (0% ≤ substrate protein remaining % ≤ 80%) | – | – | A (0% ≤ substrate protein remaining % ≤ 80%) | A (0% ≤ substrate protein remaining % ≤ 80%) | 500 to 1000 nM | A (0% ≤ substrate protein remaining % ≤ 80%) | – | A (0% ≤ substrate protein remaining % ≤ 80%) | IC50 [12]: 10 to 50 nM
3 | O=C1CCC(N2Cc3cc(CN4C5CCC4CN(c4cccc(Cl)c4Cl)C5)ccc3C2=O)C(=O)N1 (stereo not shown) [GT-04855, 3-(5-((3-(2,3-dichlorophenyl)-3,8-diazabicyclo[3.2.1]octan-8-yl)methyl)-1-oxoisoindolin-2-yl)piperidine-2,6-dione] | 5 to 10 nM | A (0% ≤ substrate protein remaining % ≤ 80%) | B (80%< substrate protein remaining %≤ 100%) | 50 to 100 nM | 50 to 100 nM | A (0% ≤ substrate protein remaining % ≤ 80%) | A (0% ≤ substrate protein remaining % ≤ 80%) | < 500 nM | A (0% ≤ substrate protein remaining % ≤ 80%) | 500 to 1000 nM | A (0% ≤ substrate protein remaining % ≤ 80%) | –
4 | O=C1CCC(N2Cc3cc(CN4CC=C(c5ncnc6sc(-c7ccccc7)cc56)CC4)ccc3C2=O)C(=O)N1 (stereo not shown) [GT-05101, 3-(1-oxo-5-((4-(6-phenylthieno[2,3-d]pyrimidin-4-yl)-3,6-dihydropyridin-1(2H)-yl)methyl)isoindolin-2-yl)piperidine-2,6-dione] | < 1 nM | A (0% ≤ substrate protein remaining % ≤ 80%) | B (80%< substrate protein remaining %≤ 100%) | 1 to 5 nM | 1 to 5 nM | A (0% ≤ substrate protein remaining % ≤ 80%) | A (0% ≤ substrate protein remaining % ≤ 80%) | 500 to 1000 nM | A (0% ≤ substrate protein remaining % ≤ 80%) | 5 to 10 nM | A (0% ≤ substrate protein remaining % ≤ 80%) | –
5 | Cn1cc(C2CCN(Cc3ccc4c(c3)CN(C3CCC(=O)NC3=O)C4=O)CC2)c2ccc(F)cc21 (stereo not shown) [GT-04858, 3-(5-((4-(6-fluoro-1-methyl-1H-indol-3-yl)piperidin-1-yl)methyl)-1-oxoisoindolin-2-yl)piperidine-2,6-dione] | < 1 nM | A (0% ≤ substrate protein remaining % ≤ 80%) | B (80%< substrate protein remaining %≤ 100%) | 1 to 5 nM | 1 to 5 nM | A (0% ≤ substrate protein remaining % ≤ 80%) | A (0% ≤ substrate protein remaining % ≤ 80%) | < 500 nM | A (0% ≤ substrate protein remaining % ≤ 80%) | 5 to 10 nM | A (0% ≤ substrate protein remaining % ≤ 80%) | –
6 | O=C1CCC(N2Cc3cc(CN4CC=C(c5cccc6c(F)cccc56)CC4)ccc3C2=O)C(=O)N1 (stereo not shown) [GT-04902, 3-(5-((4-(5-fluoronaphthalen-1-yl)-3,6-dihydropyridin-1(2H)-yl)methyl)-1-oxoisoindolin-2-yl)piperidine-2,6-dione] | < 1 nM | A (0% ≤ substrate protein remaining % ≤ 80%) | A (0% ≤ substrate protein remaining % ≤ 80%) | 1 to 5 nM | 1 to 5 nM | A (0% ≤ substrate protein remaining % ≤ 80%) | A (0% ≤ substrate protein remaining % ≤ 80%) | < 500 nM | A (0% ≤ substrate protein remaining % ≤ 80%) | 5 to 10 nM | A (0% ≤ substrate protein remaining % ≤ 80%) | –
7 | O=C1CCC(N2Cc3cc(CN4CC=C(c5ncnc6sc7c(c56)CCC7)CC4)ccc3C2=O)C(=O)N1 (stereo not shown) [GT-04934, 3-(5-((4-(6,7-dihydro-5H-cyclopenta[4,5]thieno[2,3-d]pyrimidin-4-yl)-3,6-dihydropyridin-1(2H)-yl)methyl)-1-oxoisoindolin-2-yl)piperidine-2,6-dione] | < 1 nM | A (0% ≤ substrate protein remaining % ≤ 80%) | A (0% ≤ substrate protein remaining % ≤ 80%) | 50 to 100 nM | 10 to 50 nM | A (0% ≤ substrate protein remaining % ≤ 80%) | A (0% ≤ substrate protein remaining % ≤ 80%) | < 500 nM | A (0% ≤ substrate protein remaining % ≤ 80%) | 100 to 500 nM | A (0% ≤ substrate protein remaining % ≤ 80%) | –
8 | Cc1ccc(Sc2ccccc2N2CCN(Cc3ccc4c(c3)C(=O)N(C3CCC(=O)NC3=O)C4=O)CC2)c(C)c1 (stereo not shown) [GT-06761, 5-((4-(2-((2,4-dimethylphenyl)thio)phenyl)piperazin-1-yl)methyl)-2-(2,6-dioxopiperidin-3-yl)isoindoline-1,3-dione] | 100 to 500 nM | – | – | – | – | – | – | – | – | – | – | IC50 [13]: 100 to 500 nM; IC50 [14]: 10 to 50 nM; IC50 [15]: 100 to 500 nM; IKZF 1 substrate protein remaining % [2, 17]: A (0% ≤ substrate protein remaining % ≤ 80%); CK1a substrate protein remaining % [3, 17]: A (0% ≤ substrate protein remaining % ≤ 80%); Weel substrate protein remaining % [6, 17]: A (0% ≤ substrate protein remaining % ≤ 80%); GSPT1 substrate protein remaining % [7, 17]: A (0% ≤ substrate protein remaining % ≤ 80%); IKZF2 substrate protein remaining % [9, 17]: A (0% ≤ substrate protein remaining % ≤ 80%); IKZF3 substrate protein remaining % [11, 17]: A (0% ≤ substrate protein remaining % ≤ 80%)
